Data from patent publication US20210087217A1, “NUCLEOTIDE HEMI-SULFATE SALT FOR THE TREATMENT OF HEPATITIS C VIRUS” (Atea Pharmaceuticals, Inc., priority 2017, published 2021).
Where a name gives a salt, the structure may show the parent alone.

Legend:
[1] = Solubility in biorelevant test medias (water, SGF, FaSSIF, FeSSIF)
[2] = Heart and liver tissue levels of active triphosphate 4 hours after oral Compound 2, dogs; type: in vivo, dog; conditions: 4 hours after oral dose of Compound 2
Protocol: (§1) High levels of the active TP were measured in the liver of all species tested.

[3] = Chemical stability of Compound 2 at 25 and 40° C. over 6 months; type: physicochemical
Protocol: The container closure system for the study was a combination medicinal valve bag with a pharmaceutical laminated film over the pouch and desiccant silica gel between the two layers. […] Bags were then stored at 25° C./60% RH (relative humidity) and 40° C./75% RH (relative humidity). Organic purity, water content, ^1HNMR, DSC and Raman were measured at Time 0, Month 1, Month 2, Month 3 and Month 6.
The sample was dissolved in acetonitrile-water (90:10) (v/v). The gradient method is shown below.
At 25° C., the percent of degradation product increased from 0.03% at Day 0 to 0.08% after 6 months. At 40° C., the percent of degradation product increased from 0.03% to 0.39%. Over the course of 6 months, the percent of water increased approximately 0.6% at 25° C. and increased approximately 0.7% at 40° C.

[4] = Head-to-head comparison of plasma levels in dogs dosed with Compound 1 and Compound 2; type: in vivo, dog; conditions: dosed Compound 1 25 mg/kg or Compound 2 30 mg/kg, normalized to a dose of 25 mg/kg
Protocol: A head-to-head comparison of dogs dosed with Compound 1 and Compound 2 was conducted.

[5] = Plasma profiles of Compound 2 metabolites in rats; conditions: rats, single oral dose of Compound 2
Protocol: The results for a single 500 mg/kg dose in rats is shown in FIG. 17 and the results for a single 30, 100, or 300 mg/kg dose in monkeys is shown in FIG. 18.

[6] = Heart and liver tissue levels of active triphosphate 4 hours after oral Compound 2, rats; type: in vivo, rat; conditions: 4 hours after oral dose of Compound 2
Protocol: as §1

[7] = Plasma levels of metabolites following single oral doses of Compound 2, dogs; type: in vivo, dog; conditions: for AUC(0-t) / Cmax / Tmax: dog, plasma, po
[8] = Single ascending dose study of Compound 2 in GT1-HCV infected patients (Part B): safety, tolerability, pharmacokinetic; type: in vivo, human
Protocol: Subjects in Part B received a single dose of Compound 2 in the fasting state. Patients were confined to the clinic from Day −1 to Day 6.
Part B was initiated after the safety (through Day 5) and plasma pharmacokinetic (through 24 h) data review from Cohort 3a in Part A. Available safety data (through Day 5) and pharmacokinetic data (through 24 h) was reviewed for the first cohort in Part B (Cohort 1b) before enrolling subsequent Part B cohorts. Subsequent Part B cohorts were only dosed following review of available safety and pharmacokinetic data from the respective doses in Part A as well as available safety (through Day 5) from the prior Part B cohorts.
Patients infected with HCV were treatment-naïve, non-cirrhotic GT1-infected subjects with a viral load of ≥5 log10 IU/mL.
Pharmacokinetic of Compound 1 and nucleoside metabolite 1-7 were measured following the single dose of Compound 2. […] Values are reported as mean±SD, except or Tmax where median (range) is reported.
Plasma exposure of Compound 1 was dose-related while exposure of metabolite 1-7 was dose-proportional.

[9] = Part B, GT1-HCV infected patients

## CNc1nc(N)nc2c1ncn2[C@@H]1O[C@H](CO[P@@](=O)(N[C@@H](C)C(=O)OC(C)C)Oc2ccccc2)[C@@H](O)[C@@]1(C)F [Compound 2, hemi-sulfate salt of isopropyl((S)-(((2R,3R,4R,5R)-5-(2-amino-6-(methylamino)-9H-purin-9-yl)-4-fluoro-3-hydroxy-4-methyltetrahydrofuran-2-yl)methoxy)(phenoxy)phosphoryl)-L-alaninate]
[1]; FaSSIF
  Appearance in solubility test: Turbid
  Solubility descriptive term: Slightly
[1]; FeSSIF
  Appearance in solubility test: Turbid
  Solubility descriptive term: Slightly
[1]; SGF
  Appearance in solubility test: Turbid
  Solubility descriptive term: Soluble
[1]; Water
  Appearance in solubility test: Turbid
  Solubility descriptive term: Soluble
  Times more soluble in water compared to Compound 1: up to 43 times
[1]; simulated gastric fluid (SGF)
  Times more soluble than Compound 1 under SGF conditions: over 6 times
[2]
  Active TP (metabolite 1-6) level in heart: Relatively low levels
  Active TP (metabolite 1-6) level in liver: High levels
[3]; 25° C.
  Increase of the percent of water over 6 months: approximately 0.6%
[3]; 25° C./60% RH, Day 0
  Maximum Impurity Percent: 0.12%
  Percent Purity: 99.82%
  Percent Water: 1.2%
[3]; 25° C./60% RH, Month 1
  1HNMR compared with Day 0: The same as
  DSC compared with Day 0: The same as
  Maximum Impurity Percent: 0.12%
  Percent Purity: 99.77%
  Percent Water: 1.9%
  Raman compared with Day 0: The same as
[3]; 25° C./60% RH, Month 2
  1HNMR compared with Day 0: The same as
  DSC compared with Day 0: The same as
  Maximum Impurity Percent: 0.12%
  Percent Purity: 99.75%
  Percent Water: 1.8%
  Raman compared with Day 0: The same as
[3]; 25° C./60% RH, Month 3
  1HNMR compared with Day 0: The same as
  DSC compared with Day 0: The same as
  Maximum Impurity Percent: 0.12%
  Percent Purity: 99.75%
  Percent Water: 1.8%
  Raman compared with Day 0: The same as
[3]; 25° C./60% RH, Month 6
  1HNMR compared with Day 0: The same as
  DSC compared with Day 0: The same as
  Maximum Impurity Percent: 0.13%
  Percent Purity: 99.74%
  Percent Water: 1.8%
  Raman compared with Day 0: The same as
[3]; 40° C.
  Increase of the percent of water over 6 months: approximately 0.7%
[3]; 40° C./75% RH, Day 0
  Maximum Impurity Percent: 0.12%
  Percent Purity: 99.82%
  Percent Water: 1.2%
[3]; 40° C./75% RH, Month 1
  1HNMR compared with Day 0: The same as
  DSC compared with Day 0: The same as
  Maximum Impurity Percent: 0.12%
  Percent Purity: 99.71%
  Percent Water: 2.0%
  Raman compared with Day 0: The same as
[3]; 40° C./75% RH, Month 2
  1HNMR compared with Day 0: The same as
  DSC compared with Day 0: The same as
  Maximum Impurity Percent: 0.12%
  Percent Purity: 99.63%
  Percent Water: 1.9%
  Raman compared with Day 0: The same as
[3]; 40° C./75% RH, Month 3
  1HNMR compared with Day 0: The same as
  DSC compared with Day 0: The same as
  Maximum Impurity Percent: 0.12%
  Percent Purity: 99.58%
  Percent Water: 1.9%
  Raman compared with Day 0: The same as
[3]; 40° C./75% RH, Month 6
  1HNMR compared with Day 0: The same as
  DSC compared with Day 0: The same as
  Maximum Impurity Percent: 0.14%
  Percent Purity: 99.30%
  Percent Water: 1.9%
  Raman compared with Day 0: The same as
[3]; stored for 6 months at 25 and 40° C.
  Rate of degradation: minimal
[4]
  Mean Dose-normalized AUC(0-4hr) for Compound 1: 1.0 µM·h
[5]
  Plasma levels of parent nucleotide prodrug: very low plasma levels
[6]
  Active TP (metabolite 1-6) level in heart: unquantifiable levels
  Active TP (metabolite 1-6) level in liver: High levels
[7]; 30 mg/kg
  AUC(0-t): 1300 ng·h/mL
[7]; 100 mg/kg
  AUC(0-t): 10200 ng·h/mL
  Cmax: 8120 ng/mL
  Tmax: 0.5 to 1 h
[7]; 300 mg/kg
  AUC(0-t): 44300 ng·h/mL
  Cmax: 21300 ng/mL
  Tmax: 204 h
[7]; dogs, high dose group
  Vomiting (animals affected): 5/5
[7]; dogs, single oral doses of Compound 2
  Dose proportionality of Compound 1 exposures: supra-proportional
[8]; [9]
  Intensity of adverse effects: mild to moderate
  Serious adverse events: No serious adverse events
[8]; all cohorts from Part B, single dose of Compound 2
  Time within which Compound 1 was absorbed and metabolized: ≤ 8 h
[8]; hepatitis C infected patients, single oral dose
  Tolerability: well tolerated
[8]; single dose of Compound 2
  Plasma exposure of Compound 1 versus dose: dose-related
  Plasma exposure of metabolite 1-7 versus dose: mostly dose-proportional
